The values below come from patent US5545667A, “Methods for treating neoplasms with betaines” (The Clorox Company, priority 1994, dated 1996).

One data set concerns HeLa cells. Kind of data set: Cell growth inhibition assay, HeLa. The class given is cell-based. The conditions noted are these: read-out: IC50 (uM conc. inhibiting growth of the cells by 50%). How it is done: (§1) Established cell lines are the system of choice for the prescreening of unknown compounds for antineoplastic activity. The tumor cell line screen works on the following principle. Cancer cells, if provided with enough nutrients, will grow unchecked in vitro, allowing researchers to grow many types of cancer cells outside the body. To perform an assay, standard amounts of the various cancer cells are placed in individual wells of a microtiter plate, and incubated with the potential antineoplastic compound of interest, for a sufficient period of time to allow for at least a 6-fold control growth, generally 1 to 5 days depending on cell origin. At the end of the incubation period, the cell lines are stained and assayed by a variety of means including, for example, proteins stains or a colorimeter for normal growth, growth inhibition or cytotoxicity. These assays measure a compound's ability to inhibit cell growth and a positive response of the compounds in these assays would be indicative of the therapeutic potential of these compounds. See, for example, the protocols and data presented in Laskin et al., (1979) Cancer Res 39:383-390 for 5-fluorouracil in mouse and human cells in culture.
(§2) A total of ten cell lines were used to evaluate the growth inhibitory potency of the various surfactants. In these studies, human, rat, mouse and bovine cells were used. A spectrum of different tumor cell types were used including those derived from keratinocytes (PAM 212), leukemias (HL-60, U-937 and K-562), an epitheloid carcinoma (HeLa) and melanoma (B-16). The B16 melanoma was used since this is a common cell type used to evaluate antimetastatic activity of test compounds. The effect of the surfactants on three fibroblast cell lines (C3H 10T1/2, NIH 3T3 and R6) were also evaluated for comparison to the tumor cell lines. The activity of the surfactants was also evaluated using pulmonary aortic endothelial cells for effectiveness as antiangiogenic agents.
(§3) PAM 212 cells are a mouse keratinocyte-derived tumor cell line. U-937 cells are a human histiocytic tumor cell line. HeLa cells are an epitheloid tumor cell line. Three murine fibroblast cells lines tested included the mouse fibroblast cell line, C3H 10T1/2, the rat fibroblast cell line R6, and the NIH 3T3 mouse fibroblast cell line. The human leukemia cell line HL-60 and the mouse melanoma B-16 cell were also tested. K-562 cells were from the American Type Culture Collection. All cells were grown in Dulbecco's modified Eagle's medium in a 37° C. incubator in an atmosphere of 5% CO2.
(§4) For growth inhibition assays, cells were seeded at low density (2.5×10^4 cells in 0.5 ml of culture medium) into 24-well tissue culture plates (Falcon Labware, Lincoln Park, N.J.). After 24 hours at 37° C., increasing concentrations (1 to 100 uM) of the surfactants were added to the cells in the culture plate. Control cultures were incubated in the absence of any surfactant. The cells were then incubated for 3-4 days to allow for growth. Cells from individual wells in the culture plate were then removed and duplicate samples taken for counting using a Coulter counter. To remove adherent cells the plates were treated with 0.25% trypsin/0.2% EDTA (GIBCO, Grand Island, N.Y.).

A further data set deals with CPA-5 cells. Kind of data set: Cell growth inhibition assay, CPA-5 endothelial cells. The class given is cell-based, bovine. The conditions noted are these: Bos taurus, read-out: IC50 (uM conc. inhibiting growth of the cells by 50%).
Source text: as §2, §3, §4
The compounds were tested as inhibitors of growth in the bovine aortic endothelial cell line CPA-5 as taught in Example 2 in order to evaluate the possibility that they may be anti-angiogenesis agents. A hallmark of angiogenesis is the outgrowth of endothelial cells which are required in the formation of new blood vessels. This process is a critical factor in the vascularization of tumors. Inhibition of neovascularization limits the growth of tumors and would be an effective means of treating cancer. FIG. 3 illustrates that three of the compounds, 8-3S, 12-5B and 12-1B, had no activity against the CPA-5 cell line in the concentration range tested (IC50 =>100 uM), while only relatively high concentrations of 12-3S (IC50 =70 uM) were effective in inhibiting the growth of CPA-5 cells. As indicated above, with several exceptions, these compounds were also not very effective in inhibiting the growth of each of the other cell types.

The test system of the next data set is C3H 10T1/2 cells. The data set can be described thus: Cell growth inhibition assay, C3H 10T1/2. The class given is cell-based, mouse. How it is done:
as §1, §2, §3, §4

For the next data set, the system named is PAM 212 cells. Kind of data set: Cell growth inhibition assay (surfactants, 3-4 days, Coulter counter), PAM 212. The class given is cell-based, mouse. Here is the method: as §1, §2, §3, §4
The test system of the next data set is U-937 cells. Kind of data set: Cell growth inhibition assay, U-937. Conditions: Homo sapiens. The format is cell-based. Here is the method: as §1, §2, §3, §4
A further data set deals with NIH 3T3 cells. The data set can be described thus: Cell growth inhibition assay, NIH 3T3. The format is cell-based, mouse. Here is the method:
as §1, §2, §3, §4

A further data set relates to K-562 cells. The data set can be described thus: Cell growth inhibition assay, K-562. The class given is cell-based. The conditions noted are these: Homo sapiens. Here is the method: as §1, §2, §3, §4
For a further data set, the system named is battery of cell lines. The conditions noted are these: 1988 report; cited from earlier work.
A further data set deals with R6 cells. The data set can be described thus: Cell growth inhibition assay, R6. The class given is cell-based, rat. Conditions: Fibroblast, read-out: IC50 (uM conc. inhibiting growth of the cells by 50%). How it is done: as §1, §2, §3, §4
A further data set deals with HL-60 cells. Kind of data set: Cell growth inhibition assay, HL-60. The class given is cell-based, human. Here is the method: as §1, §2, §3, §4
A short description of data set [1]: Critical micelle concentration (cmc). The class given is physicochemical. An excerpt: "Critical micelle concentration" or "cmc" refers to the point at which micelle formation begins.
In the next data set the test system is B-16 cells. Kind of data set: Cell growth inhibition assay, B-16 melanoma. The class given is cell-based, mouse. How it is done:
as §1, §2, §3, §4

In another data set the test system is ten cell lines. The data set can be described thus: Cell growth inhibition assays, panel of cell lines. The class given is cell-based, human, rat, mouse and bovine.
Source text: as §2, §3, §4

In another data set the test system is liver. The conditions noted are these: rats fed ethionine; cited from earlier work.
The mark [2] stands for this setting: Homo sapiens, HeLa, HeLa cells, 3-4 days.
[3] abbreviates: CPA-5 bovine aortic endothelial cells, 3-4 days.
Where [4] appears, read: C3H 10T1/2 mouse fibroblasts, 3-4 days, read-out: IC50 (uM conc. inhibiting growth of the cells by 50%).
Setting [5] is: PAM212, PAM 212 mouse keratinocyte-derived tumor cells, 3-4 days, read-out: IC50 (uM conc. inhibiting growth of the cells by 50%).
Where [6] appears, read: U-937, U-937 human histiocytic tumor cells, 3-4 days, read-out: IC50 (uM conc. inhibiting growth of the cells by 50%).
Setting [7] is: NIH3T3, NIH 3T3 mouse fibroblasts, 3-4 days, read-out: IC50 (uM conc. inhibiting growth of the cells by 50%).
Where [8] appears, read: K562, K-562 leukemia cells, 3-4 days, read-out: IC50 (uM conc. inhibiting growth of the cells by 50%).
The mark [9] stands for this setting: HL-60 human leukemia cells, 3-4 days, read-out: IC50 (uM conc. inhibiting growth of the cells by 50%).
[10] abbreviates: B16, B-16 mouse melanoma cells, 3-4 days, read-out: IC50 (uM conc. inhibiting growth of the cells by 50%).
Setting [11] is: Mus musculus, C3H 10T1/2, read-out: IC50 (uM conc. inhibiting growth of the cells by 50%).
The mark [12] stands for this setting: U-937, read-out: IC50 (uM conc. inhibiting growth of the cells by 50%).
Where [13] appears, read: Mus musculus, NIH3T3, read-out: IC50 (uM conc. inhibiting growth of the cells by 50%).
The mark [14] stands for this setting: K562, read-out: IC50 (uM conc. inhibiting growth of the cells by 50%).
Setting [15] is: Homo sapiens, HL-60, read-out: IC50 (uM conc. inhibiting growth of the cells by 50%).
Setting [16] is: Mus musculus, B16, read-out: IC50 (uM conc. inhibiting growth of the cells by 50%).

Where a name gives a salt, the structure may show the parent alone. Read-outs that look alike come from different tables or passages of the source. Bounds are passed on as bounds.

For `CCCCCCCCCCCC[N+](C)(C)CCCS(=O)(=O)[O-]` [12-3S, N-dodecyl-N,N-dimethyl-3-ammonio-1-propanesulfonate], the IC50 (as a rule, the point on the concentration scale where inhibition reaches its midpoint) is 58 µM in the data set with HeLa cells (HeLa cells, 3-4 days); 68 µM in the data set on HeLa cells (setting [2]); 70 µM with CPA-5 cells (setting [3]); 6.5 µM in the data set with C3H 10T1/2 cells (setting [4]); 3 µM in the data set with PAM 212 cells (setting [5]); above 100 µM in the data set with U-937 cells (setting [6]). Moreover, the IC50 was above 100 µM with NIH 3T3 cells (setting [7]); above 100 µM with K-562 cells (setting [8]); 45 µM in the data set with R6 cells (R6 rat fibroblasts, 3-4 days); 9.3 µM in the data set on HL-60 cells (setting [9]); above 100 µM in the data set on B-16 cells (setting [10]). Further, the “inhibition and toxicity at the concentrations tested” value in the data set with battery of cell lines was “noninhibitory and nontoxic”. Also, the cmc in data set [1] is given as 2,200 uM.

As for `CCCCCCCCCCCC[N+](C)(C)CC(=O)[O-]` [12-1B, N-(carboxymethyl)-N,N-dimethyl-1-dodecanaminium hydroxide inner salt], the IC50 with HeLa cells (Homo sapiens, HeLa) is 39 µM; in the data set on CPA-5 cells, above 100 µM; in the data set on C3H 10T1/2 cells (setting [11]), above 100 µM; in the data set on U-937 cells (setting [12]) it was above 100 µM; in the data set with NIH 3T3 cells (setting [13]), above 100 µM; in the data set on K-562 cells (setting [14]), 19 µM. Besides, the IC50 in the data set with R6 cells (Rattus norvegicus) was above 100 µM; in the data set with HL-60 cells (setting [15]) it was 37 µM; with B-16 cells (setting [16]), 90 µM. The “inhibition and toxicity at the concentrations tested” value in the data set on battery of cell lines was “inhibitory and toxic”. Moreover, in data set [1], the cmc was 2,400 uM.

As for `CCCCCCCCCCCCCCCC[N+](C)(C)CC(=O)[O-]` [16-1B, N-(carboxymethyl)-N,N-dimethyl-1-hexadecanaminium hydroxide inner salt], the IC50 in the data set with HeLa cells (Homo sapiens, HeLa) came to 16 µM; in the data set with CPA-5 cells it was 30 µM; with C3H 10T1/2 cells (setting [11]) it was 54 µM; in the data set with PAM 212 cells (Mus musculus, PAM212, read-out: IC50 (uM conc. inhibiting growth of the cells by 50%)), 50 µM; in the data set with U-937 cells (setting [12]) it was 23 µM; in the data set with NIH 3T3 cells (setting [13]), 60 µM. Also, the 50% inhibitory concentration (IC50) with K-562 cells (setting [14]) was 32 µM; in the data set with R6 cells (Rattus norvegicus), 45 µM; in the data set with HL-60 cells (setting [15]) it was 8 µM; with B-16 cells (setting [16]) it was 52 µM. Moreover, the “activity against all of the cell lines tested” value in the data set on ten cell lines (growth inhibition) was “effective against all of the cell lines”. In addition, the cmc in data set [1] was 14 µM.

Turning to `CCCCCCCCCCCCCCCC[N+](C)(C)CCCS(=O)(=O)[O-]` [16-3S, N-hexadecyl-N,N-dimethyl-3-ammonio-1-propanesulfonate], the IC50 in the data set on HeLa cells (setting [2]) was found to be 2.2 µM; in the data set with CPA-5 cells (setting [3]), 17 µM; in the data set on C3H 10T1/2 cells (setting [4]), 3.3 µM; in the data set with PAM 212 cells (setting [5]), 7.5 µM; with U-937 cells (setting [6]), 6 µM; in the data set with NIH 3T3 cells (setting [7]), 40 µM. The IC50 in the data set with K-562 cells (setting [8]) worked out at 15 µM; in the data set on R6 cells (R6 rat fibroblasts, 3-4 days), 14 µM; with HL-60 cells (setting [9]) it was 1.6 µM; with B-16 cells (setting [10]), 54 µM. The compound also gave a cmc in data set [1] of 28 µM.

As to `CCCCCCCC[N+](C)(C)CCCS(=O)(=O)[O-]` [8-3S, N-octyl-N, N-dimethyl-3-ammonio-1-propanesulfonate], the IC50 with HeLa cells (setting [2]), with CPA-5 cells (setting [3]), in the data set on C3H 10T1/2 cells (setting [4]), in the data set with PAM 212 cells (setting [5]), in the data set with U-937 cells (setting [6]) and in the data set with NIH 3T3 cells (setting [7]) was above 100 µM throughout. Besides, the concentration for half-maximal inhibition (IC50) with K-562 cells (setting [8]) was above 100 µM; in the data set with R6 cells (R6 rat fibroblasts, 3-4 days), 78 µM; with ten cell lines (all / all other cell lines tested, read-out: IC50 over the cell lines tested (range or bound)), above 100 µM; in the data set on HL-60 cells (setting [9]) it was above 100 µM; in the data set on B-16 cells (setting [10]) it was above 100 µM. In data set [1], the cmc is 200,000 uM.

In the case of `C[N+](C)(C)CC(=O)O` [betaine], the “prevention of chronic morphological changes in the liver, including cancer formation” value with liver is “relatively effective in preventing chronic morphological changes in the liver, including cancer formation”.

For `CCCCCCCCCCCC[N+](C)(C)CCCCCC(=O)[O-]` [12-5B, N-(5-carboxypentyl)-N,N-dimethyl-1-dodecanaminium hydroxide inner salt], the half-inhibitory concentration (IC50) with HeLa cells (setting [2]) is 75 µM; in the data set with CPA-5 cells (setting [3]), above 100 µM; in the data set with C3H 10T1/2 cells (setting [4]) it was above 100 µM; with PAM 212 cells (setting [5]), 60 µM; in the data set on U-937 cells (setting [6]), above 100 µM; in the data set on NIH 3T3 cells (setting [7]) it was above 100 µM. The IC50 is above 100 µM in the data set on K-562 cells (setting [8]); 78 µM in the data set on R6 cells (R6 rat fibroblasts, 3-4 days); 11 µM in the data set on HL-60 cells (setting [9]); above 100 µM in the data set with B-16 cells (setting [10]). Besides, the cmc in data set [1] is 5,100 uM.
